# According to patent publication US7217557B1, “Three-dimensional structure of polyketide synthases” (The Salk Institute for Biological Studies, priority 1999, dated 2007):
# Entries after “also recorded” stand apart in the source; their conditions may differ.
# B1: C164S: CHS mutant C164S of SEQ ID NO:1 (protein, UniProt P30074 1-389, looked up, variant C164S)
# Chalcone synthase 2: MVSVSEIRKAQRAEGPATILAIGTANPANCVEQSTYPDFYFKITNSEHKTELKEKFQRMCDKSMIKRRYMYLTEEILKENPNVCEYMAPSLDARQDMVVVEVPRLGKEAAVKAIKEWGQPKSKITHLIVCTTSGVDMPGADYQLTKLLGLRPYVKRYMMYQQGSFAGGTVLRLAKDLAENNKGARVLVVCSEVTAVTFRGPSDTHLDSLVGQALFGDGAAALIVGSDPVPEIEKPIFEMVWTAQTIAPDSEGAIDGHLREAGLTFHLLKDVPGIVSKNITKALVEAFEPLGISDYNSIFWIAHPGGPAILDQVEQKLALKPEKMNATREVLSEYGNMSSACVLFILDEMRKKSTQNGLKTTGEGLEWGVLFGFGPGLTIETVVLRSVAI
# Experiments:
# [1] = TLC-based radiometric assay of product formation by 2-PS, CHS and CHS mutants; assay type: biochemical; settings: for polyketide product formed: TLC, triple mutant and 2-PS confirmed by LC/MS; for starter molecule accepted: p-coumaroyl-CoA or acetyl-CoA as starter
# Text: Comparison of the initiation/elongation cavities of 2-PS and CHS reveal four amino acid differences. In 2-PS, Leu202, Met259, Leu261, and Ile343 replace Thr197, Ile254, Gly256, and Ser338, respectively, of CHS. These four substitutions reduce cavity volume from 923 Å^3 in CHS to 274 Å^3 in 2-PS. A model of methylpyrone in the 2-PS cavity, based on the position of acetoacetyl-CoA, emphasizes the volume change compared to the CHS-naringenin complex (Accession No. 1CGK). Leu202 and Ile343 occlude the portion of the 2-PS cavity corresponding to the coumaroyl-binding site of CHS. Replacement of Gly256 in CHS by Leu261 in 2-PS severely reduces the size of the active site cavity. Substitution of Met259 in 2-PS for Ile254 in CHS produces a modest alteration in cavity volume. To examine the functional importance of these amino acid differences, the initiation/elongation cavity of CHS was altered by mutagenesis to resemble that of 2-PS. The resulting mutant proteins were screened for activity using either p-coumaroyl-CoA or acetyl-CoA as starter molecules. Activities of 2-PS, CHS, and the CHS mutants were determined by monitoring product formation using a TLC-based radiometric assay. Assay conditions were 100 mM Hepes (pH 7.0), 30 μM starter-CoA (either p-coumaroyl-CoA or acetyl-CoA), and 60 μM [^14C]-malonyl-CoA (50,000 cpm) in 100 μl at 25° C. Reactions were quenched with 5% acetic acid, extracted with ethyl acetate, and applied to TLC plates and developed. Due to the spontaneous cyclization of chalcone into the flavanone naringenin, activities of CHS are referenced to naringenin formation.
# The x-ray crystal structures of 2-PS and CHS imply that the size of the active site cavity limits polyketide length and modulates folding of the polyketide chain. […] Since the T197L, G256L, and S338I mutants altered product formation, a CHS triple mutant was generated. […] LC/MS/MS analysis was performed by the Mass Spectroscopy facility of the Scripps Research Institute. Scaled-up assays (2 ml reaction volume) with the CHS T197L/G256L/S338I mutant and 2-PS were performed. Extracts were analyzed on a Hewlett-Packard HP1100 MSD single quadrupole mass spectrometer coupled to a ZorbaxSB-C18 column (5 μm, 2.1 mm×150 mm). HPLC conditions were as follows: gradient system from 0 to 100% methanol in water (each containing 0.2% acetic acid) within 10 min; flow rate 0.25 ml min^−1. LC/MS/MS data from both reactions were identical: 6-methyl-4-hydroxy-2pyrone, Rt=5.068 min; [M-H]^−125 (41); [M-H—CO2]^−[…] (100). The numbers show m/z values with relative intensities in parenthesis. The observed fragmentation matches previously published data.
# CHS = settings: covalently modifies Cys164; Lanz et al. 1991; cited from earlier work
# [2] = Functional assay of malonyl-CoA decarboxylation by the C164S mutant; assay type: biochemical; settings: determined crystallographically and confirmed by a functional assay
# Text: Asn336 appears to play a crucial role in the decarboxylation reaction. […] In the hexanoyl-CoA complex, the side chain amide of Asn336 provides a hydrogen bond to the carbonyl oxygen of the thioester. This interaction would stabilize the enolate anion resulting from decarboxylation of malonyl-CoA (see FIG. 6). At the same time, the lack of formal positive charge at Asn336 may preserve the partial carbanion character of this resonance-stabilized anion, and thus the nucleophilicity of the carbanion form.
# [3] = 30 μM starter-CoA, 60 μM [14C]-malonyl-CoA, pH 7.0, 25° C.
molecule,measurement,setting,value
CHS I254M: CHS mutant I254M of SEQ ID NO:1,specific activity compared with wild-type enzyme,[1],functionally comparable to wild-type enzyme with a modest reduction in specific activity
same,polyketide product formed,[1],yields chalcone
S338I: CHS mutant S338I of SEQ ID NO:1,preference for p-coumaroyl-CoA versus acetyl-CoA as starter molecule,[1]; [3],3 fold
same,polyketide product formed,[1],do not form chalcone; also recorded: form a distinct product
G256L: CHS mutant G256L of SEQ ID NO:1,preference for acetyl-CoA over coumaroyl-CoA as starter molecule,[1]; [3],3 fold
same,polyketide product formed,[1],do not form chalcone
C/C=C/C/C=C/CCC(=O)[C@H]1O[C@H]1C(N)=O [Cerulenin],inhibition of CHS,CHS,potent irreversible inhibitor
T197L/G256L/S338I: CHS triple mutant with active site sterically analogous to 2-pyrone synthase,polyketide product formed,[1],produces only methylpyrone
same,starter molecule accepted,[1],only accepts acetyl-CoA (or malonyl-CoA)
"2-PS: 2-Pyrone synthase from Gerbera hybrida, expressed in E. coli",polyketide product formed,[1],produces the triketide methylpyrone
same,starter molecule accepted,[1],accepts acetyl-CoA but does not use p-coumaroyl-CoA
T197L: CHS mutant T197L of SEQ ID NO:1,preference for p-coumaroyl-CoA versus acetyl-CoA as starter molecule,[1]; [3],10 fold
same,polyketide product formed,[1],do not form chalcone; also recorded: form a distinct product
B1,decarboxylation of malonyl-CoA / residual catalytic activity,[2],retains limited catalytic activity; also recorded: produces acetyl-CoA
